Laboratory results reported in PubChem BioAssay (NCI).
Several values for one entry are separate records, joined by “and”; a condition that tells them apart may be missing. Identical values can stand only once.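 These data come from cells grown in 96-well plates and exposed to compound for 48 hours at five concentrations. GI50 = concentration required for 50% inhibition of growth. TGI marks complete inhibition of growth.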

Columns and labels:
Assay in all cases: NCI-60 cell line screen, 48 h
[1] = system: SNB-75 CNS
[2] = system: SNB-19 CNS
[3] = system: HL-60(TB) leukemia
[4] = system: CCRF-CEM leukemia
[5] = system: ACHN renal
[6] = system: HCT-15 colon
[7] = system: SF-295 CNS
[8] = system: KM12 colon
[9] = system: T-47D breast
[10] = system: K-562 leukemia

Row | SMILES | TGI [1] | TGI [2] | TGI [3] | TGI [4] | TGI [5] | TGI [6] | GI50 [7] | TGI [7] | GI50 [8] | TGI [8] | GI50 [9] | TGI [9] | TGI [10] | GI50 [1] | GI50 [2] | GI50 [3] | GI50 [4] | GI50 [5] | GI50 [6] | GI50 [10]
1 | [C-]#[O+].[C-]#[O+].[Ir].[O-]c1ccc2ccccc2c1N=Nc1ccccc1 | 59.6 µM | > 70.7 µM | 7.76 µM | 7.42 µM | 13.8 µM | 19.8 µM | 45.9 µM | > 72.1 µM | 13 µM | > 44.1 µM | 11.9 µM | 33.5 µM | 80.4 µM |  |  |  |  |  |  | 
2 | CC(C)[C@](O)(C(=O)OCC1=CC[N+]2([O-])CC[C@@H](O)[C@@H]12)[C@H](C)O (stereo partly drawn) | > 10000 µM | > 10000 µM | 9860 µM | > 10000 µM | > 10000 µM | > 10000 µM |  | > 10000 µM |  | > 10000 µM |  | > 10000 µM | > 10000 µM |  |  |  |  |  |  | 
3 | COc1cc(-c2nc3ccccc3[nH]2)ccc1OCC(=O)N=Nc1c(O)[nH]c2ccc(Cl)cc12 | 2.64 µM | 3.04 µM | 4.42 µM | 3.56 µM | > 100 µM | > 100 µM | 1.81 µM | 3.35 µM | 1.41 µM | 3.24 µM | 1.66 µM | 3.75 µM | 3.1 µM | 1.19 µM | 1.63 µM | 1.93 µM | 0.5 µM | 4.75 µM | 4.9 µM | 0.454 µM
4 | FC(F)(F)c1[nH]ncc1-c1nc2c(N3CCCCC3)cc3[nH]ncc3c2c2c1CCCC2 | 1.2 µM | > 16.5 µM | 3.32 µM | > 50 µM | > 28 µM | > 16.5 µM | 0.857 µM | 3.16 µM | 0.793 µM | 7.95 µM | 0.756 µM | > 13.7 µM | > 50 µM | 0.533 µM | 1.25 µM | 1.23 µM | 1.14 µM | 0.498 µM | 1.07 µM | 1.04 µM
5 | Cc1cc(O)c(C2=NN(c3ccc(S(N)(=O)=O)cc3)C(c3ccccc3O)C2)cc1Cl (stereo not drawn) | 8.64 µM | 11.4 µM | 6.14 µM | > 24.7 µM | 8.55 µM | 6.25 µM | 1.68 µM | 3.5 µM | 1.74 µM | 3.4 µM | 2.61 µM | 11.3 µM | 7.93 µM | 1.54 µM | 3.5 µM | 2.49 µM | 3.12 µM | 2.58 µM | 2.39 µM | 2.17 µM
6 | COc1ccc(-c2ccc3ncc4c(c3c2)n(-c2ccc(N3CCNCC3)c(C(F)(F)F)c2)c(=O)n4C)cn1 | 0.0129 µM and 0.0255 µM | 1.2 µM and 0.254 µM | 0.113 µM | 0.282 µM and 0.144 µM | 1.1 µM and 0.782 µM | 0.137 µM and 0.186 µM | < 0.01 µM and 0.00331 µM | 0.0284 µM and 0.032 µM | < 0.01 µM and 0.0117 µM | 0.694 µM and 0.406 µM | < 0.01 µM and 0.00189 µM | < 0.01 µM and 0.021 µM | 0.204 µM | < 0.01 µM and 0.00263 µM | < 0.01 µM and 0.00778 µM | 0.0143 µM | < 0.01 µM and 0.00664 µM | < 0.01 µM and 0.00959 µM | < 0.0104 µM and 0.0127 µM | 0.00843 µM
7 | Cc1ccc(Nc2[nH]c(C(=O)c3ccc(Cl)cc3)c(N)c2C(=S)Nc2ccccc2)nc1 | > 100 µM | > 100 µM | > 100 µM | > 100 µM | > 100 µM | > 100 µM | 21.5 µM | 67.3 µM | 16.8 µM | 54.9 µM | 29.8 µM | > 100 µM | > 100 µM | 79.3 µM | 39.4 µM | 63.3 µM | 38.1 µM | 31.9 µM | 31 µM | 45.4 µM
8 | Cc1c2cnccc2c(C)c2c1c1cc(C(=O)O)ccc1n2C | 2.53 µM | 10.3 µM | 6.64 µM | 6.6 µM | 5.27 µM | 7.82 µM | 1.16 µM | 6.65 µM | 1.04 µM | 6.92 µM | 1.51 µM | > 26.5 µM | > 100 µM | 1.1 µM | 0.738 µM | 2.09 µM | 1.06 µM | 0.464 µM | 0.804 µM | 1.28 µM
9 | COc1cc(OC)cc(-c2ccc(-c3ccc(C(=N)N)s3)s2)c1 | 2.5 µM | 3.69 µM | 2.74 µM and 0.374 µM | 2.9 µM and 0.75 µM | 3.25 µM | 1.01 µM | 1.65 µM | 3.22 µM | 0.517 µM and 0.302 µM | 2.04 µM and 1.13 µM | 1.36 µM | 3.15 µM | 1.11 µM and 0.441 µM | 1.22 µM | 1.72 µM | 1.23 µM and 0.174 µM | 1.24 µM and 0.277 µM | 1.45 µM | 0.294 µM | 0.346 µM and 0.178 µM
